Laboratory results as given in patent US20240197698A1, “TREATMENT OF ACUTE ANXIETY WITH AN ALPHA-7 NICOTINIC ACETYLCHOLINE RECEPTOR MODULATOR” (Vanda Pharmaceuticals Inc., priority 2022, published 2024).

Experiments:
[1] = test system: subjects with substantial public speaking anxiety; assay type: in vivo, human
[2] = Plasma concentration of VQW-765 after the TSST by LC-MS/MS; settings: single oral 10 mg; for Mean plasma concentration: female subjects
[3] = test system: subjects with substantial public speaking anxiety; experiment: Trier Social Stress Test (TSST) public speaking challenge, randomized double-blind placebo-controlled study: SUDS, CGI-C, PGI-C; assay type: in vivo, human; design: key to SUDS Mean: SUDS 0–100; 0 = no distress/totally relaxed, 100 = highest anxiety ever felt; settings: for PGI-C Mean / CGI-C Mean: Post-TSST
Description: A multicenter, randomized, double-blind, placebo-controlled study evaluates the efficacy and safety of VQW-765 in subjects with substantial public speaking anxiety. […] The study design is illustrated in FIG. 1 and Table 2 (below). Visit 1 includes screening for eligibility. At visit 2, subjects are asked for a baseline SUDS rating and then randomized to one of two arms in a 1:1 ratio. […] VQW-765 is provided in the form of capsules that are white, opaque, hard gelatin, size 3, containing 10 mg VQW-765 and lactose monohydrate, microcrystalline cellulose, methocel, croscarmellose sodium, colloidal silicon dioxide, and magnesium stearate. Placebo capsules are provided in size and appearance identical to those containing VQW-765. Two hours later, subjects are instructed to prepare for a 5-minute speech for a mock job interview (resting phase). After 3 minutes of preparation (anticipation phase), the subject delivered the speech in front of an interview panel with two clinical staff (performance phase). SUDS rating was collected at each minute from the resting to performance phase. Eligible subjects are trained to use SUDS, a self-reported rating scale from 0 to 100, used to measure the intensity of anxiety during the TSST. A SUDS rating of “0” equals “no distress/totally relaxed” and 100 equals “highest anxiety/distress that you have ever felt.” In addition, the Liebowitz Social Anxiety Score (LSAS) is administered, and blood samples are collected for pharmacogenetic analysis. LSAS is a clinician-administered rating scale used to assess how social anxiety plays a role in daily life across a variety of situations. The LSAS is used to study outcomes in clinical trials, and includes 24 items to assess both social anxiety in situations and avoidance of those situations. Each item is rated as 0, none; 1, mild; 2, moderate; or 3, severe. The maximal score is 144. After a waiting period of about two (2) hours from administration of study medication, subjects receive a modified Trier Social Stress Test (TSST) involving a public speaking challenge. The subject is instructed to prepare for a 5-minute speech for a job interview, and is asked for a SUDS rating (resting phase). Then the subject has 3 minutes to mentally prepare. A SUDS rating is collected at each minute interval (anticipation phase). Next, the subject gives a 5-minute speech to an audience of two clinical staff members dressed in white coats and previously unknown to the subject. A SUDS rating is collected just before the speech and then at each minute during the speech (performance phase). The speech is video recorded, and the video camera is observed by the subject. […] Physiological biomarkers associated with anxiety or acute stress response, including heart rate, blood pressure, body temperature, and sweating are monitored continuously by medical devices, including an ePatch Extended Holter Device throughout the Public Speaking challenge.

With Cc1ccc(-c2ccc(O[C@H]3CN4CCC3CC4)cn2)cc1 [VQW-765, (R)-3-(6-p-tolyl-pyridin-3-yloxy)-1-aza-bicyclo[2.2.2]octane] the “pattern of HRV change” value ([1]; in vivo) was “significant decline”, the “pattern of HRV increase” value ([1]; performance and recovery phases, FIGS. 6C, 6D) was “steady” and the Mean plasma concentration ([2]; exposure group PC-1 (n = 7)) was 0.25 pmol/mL. It also gave a Mean plasma concentration ([2]; exposure group PC-2 (n = 7)) of 1.18 pmol/mL, a Mean plasma concentration ([2]; exposure group PC-3 (n = 8)) of 1.58 pmol/mL and a Mean plasma concentration ([2]; exposure group PC-4 (n = 8)) of 2.06 pmol/mL. For the same molecule, the Mean plasma concentration ([2]; exposure group PC-5 (n = 8)) was 2.9 pmol/mL, the Mean plasma concentration ([2]; exposure group PC-6 (n = 8)) was 3.82 pmol/mL and the Mean plasma concentration ([2]; exposure group PC-7 (n = 8)) was 5.1 pmol/mL. It also gave a Mean plasma concentration ([2]; exposure group PC-8 (n = 8)) of 7.04 pmol/mL, a Mean plasma concentration ([2]; exposure group PC-9 (n = 8)) of 9.79 pmol/mL and a Mean plasma concentration ([2]; exposure group PC-10 (n = 7)) of 13.39 pmol/mL. The “plasma concentrations in the middle 50%, second and third quartiles” value [2] was 1.57 to 6.32 pmol/mL, the “SUDS Mean” value ([3]; Female (n = 82), Anticipation phase, P-value 0.0446 vs placebo) was 54.80 and the “SUDS Mean” value ([3]; Female (n = 82), Performance phase, P-value 0.0342 vs placebo) was 59.55. For the same molecule, the “SUDS Mean” value ([3]; Female (n = 82), Pre-dose phase (baseline), P-value 0.2239 vs placebo) was 34.27, the “SUDS Mean” value ([3]; Female (n = 82), Resting phase, P-value 0.0576 vs placebo) was 49.15 and the “SUDS Mean” value ([3]; Female-50% quartile of exposure (n = 38), Anticipation phase, P-value 0.0384 vs placebo) was 53.07. For the same molecule, the “SUDS Mean” value ([3]; Female-50% quartile of exposure (n = 38), Performance phase, P-value 0.0046 vs placebo) was 54.37, the “SUDS Mean” value ([3]; Female-50% quartile of exposure (n = 38), Pre-dose phase (baseline), P-value 0.4530 vs placebo) was 36.58 and the “SUDS Mean” value ([3]; Female-50% quartile of exposure (n = 38), Resting phase, P-value 0.0577 vs placebo) was 47.63. The “response on SUDS compared to placebo” value ([3]; Females, performance phase, p=0.034) was “larger magnitude and significant response”, the “SUDS Mean” value ([3]; ITT (n = 116), Anticipation phase, single oral 10 mg, P-value 0.0890 vs placebo) was 52.96 and the “SUDS Mean” value ([3]; ITT (n = 116), Performance phase, single oral 10 mg, P-value 0.1164 vs placebo) was 58.60. The “PGI-C Mean” value ([3]; ITT (n = 116), scale 1 to 7, P-value 0.3993 vs placebo) was 3.4, the “CGI-C Mean” value ([3]; ITT (n = 116), scale 1 to 7, P-value 0.4038 vs placebo) was 3.6 and the “SUDS Mean” value ([3]; ITT (n = 116), Pre-dose phase (baseline), single oral 10 mg, P-value 0.2215 vs placebo) was 34.66. The “SUDS Mean” value ([3]; ITT (n = 116), Resting phase, single oral 10 mg, P-value 0.1423 vs placebo) was 47.76, the “SUDS Mean” value ([3]; ITT-50% quartile of exposure (n = 56), Anticipation phase, P-value 0.0472 vs placebo) was 50.89 and the “SUDS Mean” value ([3]; ITT-50% quartile of exposure (n = 56), Performance phase, P-value 0.0332 vs placebo) was 55.36. The “SUDS Mean” value ([3]; ITT-50% quartile of exposure (n = 56), Pre-dose phase (baseline), P-value 0.3845 vs placebo) was 35.89, the “SUDS Mean” value ([3]; ITT-50% quartile of exposure (n = 56), Resting phase, P-value 0.1059 vs placebo) was 46.25 and the “SUDS Mean” value ([3]; ITT-LSAS ≥ 60 (n = 97), Anticipation phase, P-value 0.1535 vs placebo) was 54.05. The “SUDS Mean” value ([3]; ITT-LSAS ≥ 60 (n = 97), Performance phase, P-value 0.1664 vs placebo) was 59.67, the “SUDS Mean” value ([3]; ITT-LSAS ≥ 60 (n = 97), Pre-dose phase (baseline), P-value 0.3225 vs placebo) was 37.01 and the “SUDS Mean” value ([3]; ITT-LSAS ≥ 60 (n = 97), Resting phase, P-value 0.1509 vs placebo) was 49.28. For the same molecule, the “PGI-C, difference to placebo” value ([3]; ITT, p=0.399) was “No significant differences”, the “CGI-C, difference to placebo” value ([3]; ITT, p=0.404) was “No significant differences” and the “intensity of anxiety as measured by the SUDS compared to placebo” value ([3]; ITT, performance phase, p=0.116) was “trend of improvement”. The “performance anxiety compared to placebo” value ([3]; LSAS total score≥60 with efficacious exposures, p=0.014) was “significantly reduced”, the “performance anxiety compared to placebo” value ([3]; females, LSAS total score≥60 with efficacious exposures, p=0.004) was “significantly reduced” and the “SUDS compared to placebo” value ([3]; males with efficacious exposures, FIG. 5C) was “do not show improvement”. The “SUDS rating compared to placebo” value ([3]; males, FIG. 2C) was “do not show improvement”, the “SUDS rating compared to placebo” value ([3]; middle 50% of exposure, second and third quartiles, VQW-M (1.5-8 pmol/ml), p=0.033) was “significant improvement” and the “SUDS Mean” value ([3]; post-hoc, Female-Efficacious exposure (n = 46), Anticipation phase, P-value 0.0116 vs placebo) was 51.38. For the same molecule, the “SUDS Mean” value ([3]; post-hoc, Female-Efficacious exposure (n = 46), Performance phase, P-value 0.0029 vs placebo) was 54.00, the “CGI-C Mean” value ([3]; post-hoc, Female-Efficacious exposure (n = 46), P-value 0.2417 vs placebo) was 3.4 and the “PGI-C Mean” value ([3]; post-hoc, Female-Efficacious exposure (n = 46), P-value 0.4655 vs placebo) was 3.4. The “SUDS Mean” value ([3]; post-hoc, Female-Efficacious exposure (n = 46), Pre-dose phase (baseline), P-value 0.4267 vs placebo) was 36.30, the “SUDS Mean” value ([3]; post-hoc, Female-Efficacious exposure (n = 46), Resting phase, P-value 0.0282 vs placebo) was 46.52 and the “SUDS Mean” value ([3]; post-hoc, ITT-Efficacious exposure (n = 69), Anticipation phase, P-value 0.0165 vs placebo) was 49.86. For the same molecule, the “SUDS Mean” value ([3]; post-hoc, ITT-Efficacious exposure (n = 69), Performance phase, P-value 0.0202 vs placebo) was 54.96, the “CGI-C Mean” value ([3]; post-hoc, ITT-Efficacious exposure (n = 69), P-value 0.4343 vs placebo) was 3.5 and the “PGI-C Mean” value ([3]; post-hoc, ITT-Efficacious exposure (n = 69), P-value 0.5525 vs placebo) was 3.4. For the same molecule, the “SUDS Mean” value ([3]; post-hoc, ITT-Efficacious exposure (n = 69), Pre-dose phase (baseline), P-value 0.3368 vs placebo) was 35.51, the “SUDS Mean” value ([3]; post-hoc, ITT-Efficacious exposure (n = 69), Resting phase, P-value 0.0471 vs placebo) was 45.07 and the “anxiety (SUDS) during the TSST compared to placebo” value ([3]; post-hoc, subjects not wearing a face mask (n=5 on VQW-765, n=6 on placebo), FIG. 9) was “significantly less anxious”. The “performance anxiety compared to placebo” value ([3]; post-hoc, subjects with efficacious exposures, p=0.020, FIG. 5A) was “significantly alleviated”, the “CGI-C, difference to placebo” value ([3]; post-hoc, subjects with efficacious exposures, p=0.325) was “does not reveal any significant difference” and the “PGI-C, difference to placebo” value ([3]; post-hoc, subjects with efficacious exposures, p=0.376) was “does not reveal any significant difference”.
